Assay results as given in patent US9394544B2, “Ameliorating oxidative stress in neurodegenerative disease via Nox1 targeting” (University of Central Florida Research Foundation, Inc., priority 2013, dated 2016).

Columns and labels:
[1] = tested on: DA neurons in the rat SN; test: 8-oxo-dG immunostaining in the SN of 6-OHDA-treated rats; format: in vivo; details: striatal injection
Method: The experiments were carried out on rats, in accordance with the NIH Guide for the Care and Use of Laboratory Animals. All procedures were approved by the local Animal Care and Use Committee. Female Sprague Dawley (SD) rats (Charles River; 8-weeks-old at the time of the beginning of AAV expression or 6-OHDA treatment, 2 or 3 per cage) were maintained in a temperature/humidity-controlled environment under a 12 h light/dark cycle with free access to food and water. All rats were respectively allocated into […], Nox1 shRNA/AAV, T17N Rac1/AAV, and scramble (scb) shRNA/AAV or empty vector/AAV as control groups. Rats were deeply anesthetized (ketamine and xylazine mixture 30 mg/kg, i.p.) and placed in a rat stereotaxic apparatus, a site in the right substantia nigra (SN) [coordinate: anteroposterior (AP), −5.3 mm; mediolateral (ML), +2.0 mm; dorsoventral (DV), −5.8 mm] was selected to inject scb shRNA/AAV (n=8), Nox1 shRNA/AAV (n=16), T17N Rac1/AAV (n=16), and empty vector/AAV (n=28), respectively, according to the grouping. […]
Rats were deeply anesthetized with sodium pentobarbital (120 mg/kg) and transcardially perfused with saline containing 0.5% sodium nitrite and 10 U/ml heparin sulfate, followed by 4% cold formaldehyde generated from paraformaldehyde in 0.1 M PBS (pH 7.2). […] Mounted slices were evaluated on light microscope.

[2] = tested on: Rac1; test: Rac1 activation assay (active GTPase pull-down) in N27 cells; format: cell-based, rat; details: 6 h post administration
Text: The NADPH oxidase is a multi-subunit enzyme that consists of the catalytic subunits (Nox isoforms) together with the regulatory subunits including p22phox, p47phox, p40phox, p67phox, Nox organizer 1 (Noxo1), Nox activator 1 (Noxa1), and small GTPase Rac1. In order to test whether dopaminergic (DA) cells are equipped with the NOX components, N27, a well-established rat DA cell line was examined (Prasad et al. 1994). The mRNAs encoding each Nox isoform and regulatory subunits were detected using RT-PCR. Since transcriptional induction of Nox1 and Nox4 has already been reported in several tissues under a variety of stimuli, transcripts were determined in both nontreated and 6-hydroxydopamine (6-OHDA), a DA neurodegenerative compound, treated DA cells. ROS generation as induced by 6-OHDA (100 μM) and subsequent cell death was observed. All Nox isoforms (Nox1, Nox2, Nox4, Duox1 and Duox2) except Nox3 and Nox5 were detected (FIG. 1A). […] Mitochondria, which have long been considered as a major source of ROS, play a key role in Nox1-mediated superoxide generation (Desouki et al. 2005). […] Cytoplasmic regulatory subunits including p47phox, Noxa1, and Noxo1 were constitutively expressed in DA cells as well (FIG. 1A). Noxa1 and Noxo1 are homologues of p67phox and p47phox, respectively. […] GTP-bound active Rac1 was measured in DA cells treated with 6-OHDA for various duration from 1 h to 6 h. […]

Question: With NCCc1cc(O)c(O)cc1O [6-OHDA, 6-hydroxydopamine] as the molecule, how does the “DNA oxidative damage (8-oxo-dG immunoreactivity in the nucleus) caused by toxin” value [1] read?
Answer: The value was “increased DNA oxidative damage”.

Question: What about the “GTP-bound active Rac1” value [2] of the same molecule?
Answer: Its value is “Rac1 activation was observed”.
